The text below walks through data of ChEMBL document CHEMBL1124634, “Synthesis and antirhinovirus activity of 6-(dimethylamino)-2-(trifluoromethyl)-9-(substituted benzyl)-9H-purines” (J Med Chem, 1989).

Structures are written as SMILES. Bounds are passed on as bounds.

The subject of assay [1] is Human rhinovirus sp. Kind of assay: Antiviral activity against rhinoviral 16 serotype in a plaque inhibition assay using monolayers of M-HeLa cells. It is filed as functional, organism-based.
The test system of assay [2] is Human rhinovirus sp. Nature of the assay: Antiviral activity against rhinoviral-1B serotype in a plaque inhibition assay using monolayers of M-HeLa cells. The class given is functional, organism-based.
Assay [3] concerns Human rhinovirus sp. Nature of the assay: Antiviral activity against rhinoviral 8 serotype in a plaque inhibition assay using monolayers of M-HeLa cells. It is filed as functional, organism-based.
The test system of assay [4] is Human rhinovirus sp. Nature of the assay: Antiviral activity against rhinoviral 14 serotype in a plaque inhibition assay using monolayers of M-HeLa cells. It is filed as functional, organism-based.
In assay [5] the test system is Human rhinovirus sp. Nature of the assay: Antiviral activity against rhinoviral 12 serotype in a plaque inhibition assay using monolayers of M-HeLa cells. It is filed as functional, organism-based.
Assay [6] deals with Human rhinovirus sp. Nature of the assay: Percent inhibitory activity at 8 uM against rhinoviral 13 serotype in a plaque inhibition assay using monolayers of M-HeLa cells. It is filed as functional.
The test system of assay [7] is Human rhinovirus sp. Kind of assay: Antiviral activity against rhinoviral 31 serotype in a plaque inhibition assay using monolayers of M-HeLa cells. The class given is functional, organism-based.
In assay [8] the test system is Human rhinovirus sp. Kind of assay: Antiviral activity against rhinoviral 5 serotype in a plaque inhibition assay using monolayers of M-HeLa cells. The class given is functional, organism-based.
Assay [9] deals with Human rhinovirus sp. Kind of assay: Antiviral activity against rhinoviral 2 serotype in a plaque inhibition assay using monolayers of M-HeLa cells. The class given is functional, organism-based.
Assay [10] deals with Human rhinovirus sp. Kind of assay: Percent inhibitory activity at 8 uM against rhinoviral 30 serotype in a plaque inhibition assay using monolayers of M-HeLa cells. It is filed as functional.
Assay [11] concerns Human rhinovirus sp. Nature of the assay: Antiviral activity against rhinoviral 9 serotype in a plaque inhibition assay using monolayers of M-HeLa cells. The class given is functional, organism-based.
For assay [12], the system named is Human rhinovirus sp. Kind of assay: Percent inhibitory activity at 8 uM against rhinoviral 15 serotype in a plaque inhibition assay using monolayers of M-HeLa cells. The class given is functional.
The test system of assay [13] is Human rhinovirus sp. Kind of assay: Antiviral activity against rhinoviral-1A serotype in a plaque inhibition assay using monolayers of M-HeLa cells. The class given is functional, organism-based.
In assay [14] the test system is Human rhinovirus sp. Nature of the assay: Percent inhibitory activity at 8 uM against rhinoviral 21 serotype in a plaque inhibition assay using monolayers of M-HeLa cells. It is filed as functional.
In assay [15] the test system is Human rhinovirus sp. Nature of the assay: Antiviral activity against rhinoviral-19 serotype in a plaque inhibition assay using monolayers of M-HeLa cells. It is filed as functional, organism-based.
Assay [16] deals with Human rhinovirus sp. Kind of assay: Antiviral activity against rhinoviral-18 serotype in a plaque inhibition assay using monolayers of M-HeLa cells. It is filed as functional, organism-based.
Assay [17] deals with Human rhinovirus sp. Kind of assay: Percent inhibitory activity at 8 uM against rhinoviral 3 serotype in a plaque inhibition assay using monolayers of M-HeLa cells. It is filed as functional.
The test system of assay [18] is Human rhinovirus sp. Kind of assay: Percent inhibitory activity at 8 uM against rhinoviral 29 serotype in a plaque inhibition assay using monolayers of M-HeLa cells. The class given is functional.
Assay [19] relates to Human rhinovirus sp. Kind of assay: Percent inhibitory activity at 8 uM against rhinoviral 4 serotype in a plaque inhibition assay using monolayers of M-HeLa cells. The class given is functional.
The test system of assay [20] is Human rhinovirus sp. Nature of the assay: Percent inhibitory activity at 8 uM against rhinoviral 31 serotype in a plaque inhibition assay using monolayers of M-HeLa cells. The class given is functional.
Assay [21] concerns Human rhinovirus sp. Kind of assay: Percent inhibitory activity at 8 uM against rhinoviral 19s erotype in a plaque inhibition assay using monolayers of M-HeLa cells. The class given is functional.
In assay [22] the test system is Human rhinovirus sp. Kind of assay: Percent inhibitory activity at 8 uM against rhinoviral 5 serotype in a plaque inhibition assay using monolayers of M-HeLa cells. The class given is functional.
Assay [23] relates to Human rhinovirus sp. Kind of assay: Antiviral activity against rhinoviral 18 serotype in a plaque inhibition assay using monolayers of M-HeLa cells. The class given is functional, organism-based.
Assay [24] concerns Human rhinovirus sp. Kind of assay: Antiviral activity against rhinoviral 29 serotype in a plaque inhibition assay using monolayers of M-HeLa cells. It is filed as functional, organism-based.
Assay [25] concerns Human rhinovirus sp. Nature of the assay: Antiviral activity against rhinoviral 30 serotype in a plaque inhibition assay using monolayers of M-HeLa cells. The class given is functional, organism-based.
The test system of assay [26] is Human rhinovirus sp. Nature of the assay: Antiviral activity against rhinoviral 4 serotype in a plaque inhibition assay using monolayers of M-HeLa cells. The class given is functional, organism-based.
The test system of assay [27] is Human rhinovirus sp. Kind of assay: Antiviral activity against rhinoviral 15 serotype in a plaque inhibition assay using monolayers of M-HeLa cells. It is filed as functional, organism-based.
Assay [28] in a line: Percent inhibitory activity at 8 uM against rhinoviral 2 serotype in a plaque inhibition assay using monolayers of M-HeLa cells. It is filed as functional, Homo sapiens.
Assay [29] concerns Human rhinovirus sp. Kind of assay: Antiviral activity against rhinoviral 19 serotype in a plaque inhibition assay using monolayers of M-HeLa cells. It is filed as functional, organism-based.
A short description of assay [30]: Antiviral activity against rhinoviral 13 serotype in a plaque inhibition assay using monolayers of M-HeLa cells. The class given is functional, cell-based. Conditions: Homo sapiens.
In assay [31] the test system is Human rhinovirus sp. Kind of assay: Antiviral activity against rhinoviral 3 serotype in a plaque inhibition assay using monolayers of M-HeLa cells. It is filed as functional, organism-based.
A short description of assay [32]: Percent inhibitory activity at 8 uM against rhinoviral 8 serotype in a plaque inhibition assay using monolayers of M-HeLa cells. The class given is functional, Homo sapiens.
The subject of assay [33] is Human rhinovirus sp. Kind of assay: Percent inhibitory activity at 8 uM against rhinoviral 14 serotype in a plaque inhibition assay using monolayers of M-HeLa cells. It is filed as functional.

By IC50 is commonly meant the concentration needed to halve the response being measured. Lower therefore signals greater potency in that assay. As a reminder, the Inhibition is the change of the read-out against control, counted positive when it falls. A low value points to a response near the control.

Turning to `Cc1cc(Cl)ccc1Cn1cnc2c(N(C)C)nc(C(F)(F)F)nc21`, the half-inhibitory concentration (IC50) in the assay with Human rhinovirus sp. [1] worked out at 1.9 µM; in the assay on Human rhinovirus sp. [2] it was 0.12 µM; in the assay with Human rhinovirus sp. [3], 9.5 µM; with Human rhinovirus sp. [4], 9 µM; in the assay on Human rhinovirus sp. [5] it was 7.8 µM; with Human rhinovirus sp. [7] it was 12 µM. The IC50 in the assay on Human rhinovirus sp. [8] is above 8 µM; in the assay with Human rhinovirus sp. [9] it was 9 µM; with Human rhinovirus sp. [11], 2 µM; in the assay on Human rhinovirus sp. [13] it was 0.82 µM; in the assay on Human rhinovirus sp. [15], 10 µM; with Human rhinovirus sp. [16], 10 µM. The Inhibition with Human rhinovirus sp. [6] amounted to 23%; in the assay with Human rhinovirus sp. [10], 28%; with Human rhinovirus sp. [12], 11%; in the assay on Human rhinovirus sp. [14], 22%; in the assay with Human rhinovirus sp. [17] it was 29%; in the assay on Human rhinovirus sp. [18] it was 32%. This compound also displayed an Inhibition with Human rhinovirus sp. [19] of 25%.

Take `CN(C)c1nc(C(F)(F)F)nc2c1ncn2Cc1ccc(F)cc1`: the concentration for half-maximal inhibition (IC50) with Human rhinovirus sp. [1] was 1.3 µM; with Human rhinovirus sp. [2], 0.05 µM; with Human rhinovirus sp. [3] it was 8 µM; in the assay with Human rhinovirus sp. [23], 8.9 µM; in the assay with Human rhinovirus sp. [4], 7.1 µM; in the assay on Human rhinovirus sp. [5] it was 8 µM. For the same compound, the IC50 in the assay on Human rhinovirus sp. [24] stood at 4 µM; in the assay on Human rhinovirus sp. [11], 0.87 µM; in the assay with Human rhinovirus sp. [13], 1.3 µM; with Human rhinovirus sp. [25] it was 9 µM; in the assay with Human rhinovirus sp. [26], 3.8 µM; with Human rhinovirus sp. [27] it was 8.7 µM. The Inhibition worked out at 47% with Human rhinovirus sp. [20]; 22% with Human rhinovirus sp. [21]; 11% in the assay with Human rhinovirus sp. [22]; 42% in the assay on Human rhinovirus sp. [6]; 34% in the assay with Human rhinovirus sp. [14]; 27% in [28]. This compound also yielded an Inhibition with Human rhinovirus sp. [17] of 35%.

With `Cc1ccc(Cn2cnc3c(N(C)C)nc(C(F)(F)F)nc32)cc1C`, the IC50 came out at 0.78 µM in the assay with Human rhinovirus sp. [1]; 0.17 µM with Human rhinovirus sp. [2]; 5.1 µM in the assay on Human rhinovirus sp. [3]; 7.1 µM with Human rhinovirus sp. [29]; 8.2 µM in the assay on Human rhinovirus sp. [23]; 6.6 µM in the assay on Human rhinovirus sp. [4]. In addition, the IC50 in the assay on Human rhinovirus sp. [5] was 4 µM; with Human rhinovirus sp. [7], 13 µM; in the assay with Human rhinovirus sp. [8], above 8 µM; in the assay on Human rhinovirus sp. [24], 5 µM; with Human rhinovirus sp. [9], 5 µM; with Human rhinovirus sp. [11] it was 0.65 µM. Besides, the IC50 was 1.7 µM with Human rhinovirus sp. [13]; 8.1 µM with Human rhinovirus sp. [25]; 6 µM with Human rhinovirus sp. [26]; above 8 µM in [30]; 2 µM in the assay with Human rhinovirus sp. [27]. For the same compound, the Inhibition in the assay on Human rhinovirus sp. [14] was 16%; with Human rhinovirus sp. [17] it was 39%.

In the case of `Cc1ccccc1Cn1cnc2c(N(C)C)nc(C(F)(F)F)nc21`, the half-inhibitory concentration (IC50) in the assay with Human rhinovirus sp. [1] turned out to be 1.9 µM; in the assay with Human rhinovirus sp. [2], 0.29 µM; in the assay on Human rhinovirus sp. [5] it was 6.5 µM; in the assay with Human rhinovirus sp. [24], 6.2 µM; in the assay on Human rhinovirus sp. [11] it was 1.9 µM; with Human rhinovirus sp. [13], 8 µM. Besides, the IC50 turned out to be 9 µM in the assay with Human rhinovirus sp. [25], 7.5 µM in the assay on Human rhinovirus sp. [31] and 7.7 µM with Human rhinovirus sp. [16]. Further, the Inhibition with Human rhinovirus sp. [20] is 47%; in the assay with Human rhinovirus sp. [21] it was 19%; in the assay with Human rhinovirus sp. [22] it was 40%; in the assay with Human rhinovirus sp. [6] it was 33%; in the assay with Human rhinovirus sp. [12], 14%; in the assay with Human rhinovirus sp. [14], 18%. Moreover, the Inhibition in assay [32] was 44%; in the assay with Human rhinovirus sp. [33], 31%; in the assay on Human rhinovirus sp. [19] it was 22%.

As to `CN(C)c1nc(C(F)(F)F)nc2c1ncn2Cc1ccc(Cl)c(N)c1`, the IC50 with Human rhinovirus sp. [1] was 1.6 µM; in the assay with Human rhinovirus sp. [2] it was 0.17 µM; with Human rhinovirus sp. [3] it was 6.2 µM; with Human rhinovirus sp. [4], 7.1 µM; in the assay on Human rhinovirus sp. [5], 5.2 µM; in the assay on Human rhinovirus sp. [8], above 8 µM. For the same compound, the IC50 in the assay with Human rhinovirus sp. [9] was found to be 6.5 µM; with Human rhinovirus sp. [11], 1.5 µM; with Human rhinovirus sp. [13], 2.4 µM; in the assay with Human rhinovirus sp. [26], 7.2 µM; with Human rhinovirus sp. [31] it was 14 µM; in the assay on Human rhinovirus sp. [27] it was 5.8 µM. Besides, the IC50 in the assay on Human rhinovirus sp. [16] was determined as 14 µM. Moreover, the Inhibition in the assay with Human rhinovirus sp. [20] was 29%; in the assay with Human rhinovirus sp. [21], 40%; in the assay with Human rhinovirus sp. [6], 18%; in the assay with Human rhinovirus sp. [10], 34%; with Human rhinovirus sp. [14] it was 10%; in the assay on Human rhinovirus sp. [18], 26%.
